Data on 2 molecules can be found in patent US6420435B1, “Method for treating gastrointestinal disorders” (priority 1999, dated 2002).

Each structure is given as a SMILES string.

Data set [1] has as its system persons suffering from diagnosed peptic ulcers. Briefly: Treatment regimen in persons with diagnosed peptic ulcers. As to conditions: 1,000 mg dose regimen, had to discontinue. Type of data set: in vivo, human. The text has this: The present invention is particularly useful in alleviating the severity and frequency of gastrointestinal disorders. […] As used herein, “gastrointestinal disorder” shall mean mild/moderate heartburn, stomach acid indigestion, and severe heartburn/GERD.

The test system of data set [2] is participants suffering from mild/moderate heartburn to severe heartburn/GERD. The data set can be described thus: Preliminary double-blind placebo study in 13 participants. Type of data set: in vivo, human. As to conditions: 1 capsule with 1 gram of 98% d-limonene, every day/every other day regimens. The protocol: A preliminary double-blind placebo study was conducted on 13 participants suffering from mild/moderate heartburn to severe heartburn/GERD. Seven participants were administered the product and six were administered a placebo. In the “limonene” group (i.e. 1 capsule containing 1 gram of 98% d-limonene), two participants were administered 1 capsule every day for five days followed by 1 capsule every other day for five days. The remaining “limonene” group participants were administered 1 capsule every other day for 20 days. In the “placebo” group, three participants were administered 1 placebo capsule (i.e. gelatin capsule containing soybean oil) daily for five days, followed by 1 capsule every other day for 5 days. Two participants were administered 1 placebo capsule every other day for 20 days while one participant having severe heartburn was administered 1 placebo capsule twice a day for 5 days, followed by 1 capsule every day for 5 days, followed by 1 capsule as needed. As shown in Table 4 (and FIG. 4), a significant difference in results was obtained between the two groups ([…]).

Data set [3] relates to adults suffering from chronic heartburn or gastroesophagael reflux disorder (GERD). Briefly: Initial studies of d-limonene treatment regimen in 19 adults with chronic heartburn or GERD, symptom ratings on a scale of 1-10. Type of data set: in vivo, human. As to conditions: for % of participants (every day regimen) with symptom rating = 1-2: 1 capsule 1000 mg every day; for % of participants (every other day regimen) with symptom rating = 1-2: 1 capsule 1000 mg every other day; for % of all participants with symptom rating = 1-2: 1000 mg d-limonene capsule every day or every other day; for % of all participants with symptom rating = 1-2 / percentage of participants achieving complete relief of symptoms (rating of 1): all participants. The procedure: Initial studies of the inventive treatment regimen were conducted at different times on 19 adults suffering from chronic heartburn or gastroesophagael reflux disorder (GERD). […] Thirty-seven (37%) of the total participants in these initial studies were male ranging in age from 42 to 73 years (average age=50 years), while sixty-three (63%) of the participants were female ranging in age from 34 to 70 years (average age=43). All of the participants discontinued using their respective treatments of choice (i.e. over-the-counter (OTC) and/or prescription medications) at least one day prior to beginning the inventive treatment regimen. Prior to beginning the treatment regimen, each participant was asked to rate the frequency and severity of his/her gastrointestinal disorder symptoms on a scale of 1-10. For “severity of symptoms,” 1 corresponded to complete relief of symptoms while 10 corresponded to severe, painful symptoms. A rating of 2 would correspond to mild symptoms. For “frequency of symptoms,” 1 corresponded to complete relief of symptoms while 10 corresponded to daily symptoms.
Eleven of the participants were administered 1 capsule of d-limonene every other day for 20 days. Five of the participants were administered 1 capsule of d-limonene every day for 16 to 20 days. Each capsule contained 1000 mg of d-limonene having a purity of from 98.5% to 99.3%.
FIG. 3 is a graph illustrating the percentage of all the participants (i.e. those undergoing the every other day regimen and every day regimen) having a severity rating of 1.

The test system of data set [4] is individuals taking limonene. Briefly: Side effects of limonene having at least 98% purity. Type of data set: in vivo, human. The following applies: limonene having at least a 98% purity. The text has this: Any conventional distillation method known by those of ordinary skill in the art for obtaining a highly purified form of d-limonene (about 98% pure) may be employed. Example 3 illustrates one preferred distillation method for removing the majority of contaminants.

Data set [5] deals with inventor with long history of severe heartburn. The data set can be described thus: Inventor's own use of limonene for severe heartburn. Type of data set: in vivo, human. As to conditions: 500 mg to 1000 mg every other day for 8-20 days. The procedure:
Similar results were obtained on another adult taking 1000 mg every other day as well as on participants of studies discussed in more detail in Examples 1-2.

Data set [6] in a line: In vitro studies on mechanism of action. The following applies: suggested mechanism, coating the stomach wall. The text has this: The present invention is directed to a method for treating gastrointestinal disorders and comprises the oral administration of a therapeutically effective amount of limonene, preferably a purified form of d-limonene (i.e. at least 98%), to a person in need of such treatment. “Limonene” as used herein shall include both d-limonene and 1-limonene. […] The inventor has discovered that oral administration of a therapeutically effective amount of purified, food grade limonene (preferably at least 98% pure d-limonene), taken once daily or once every other day for 2 to 20 days, will alleviate or eliminate entirely the symptoms, both in terms of frequency and severity, of gastrointestinal disorders, such disorders ranging from mild/moderate heartburn and gastric indigestion to severe heartburn or gastro esophageal reflux disorder (GERD).

`C=C(C)[C@H]1CC=C(C)CC1` [d-limonene]: the “effect on severity of gastrointestinal symptoms in ulcer sufferers” value in data set [1] is “increase in the severity of gastrointestinal symptoms”. Also, the “Product vs. Placebo result (percentage of participants, rating criterion not given)” value in data set [2] (Day 4) worked out at 29%; in data set [2] (Day 7), 29%; in data set [2] (Day 9), 71%; in data set [2] (Day 14), 86%. In addition, the “% of participants (every day regimen) with symptom rating = 1-2” value in data set [3] (Day 2) came to 14%; in data set [3] (Day 4), 29%; in data set [3] (Day 7) it was 57%; in data set [3] (Day 9), 71%; in data set [3] (Day 14) it was 86%. Also, the “% of participants (every other day regimen) with symptom rating = 1-2” value is recorded as 42% in data set [3] (Day 2), 42% in data set [3] (Day 4), 67% in data set [3] (Day 7) and 75% in data set [3] (Day 9). Further, the “% of all participants with symptom rating = 1-2” value in data set [3] (Day 4) worked out at 32%; in data set [3] (Day 7), 63%; in data set [3] (Day 9) it was 74%; in data set [3] (Day 14), 89%. The “percentage of participants with severity and frequency symptom ratings of 1-2” value in data set [3] (Day 4, mild/moderate heartburn group) amounted to 55%; in data set [3] (Day 4, severe heartburn/GERD group), 0%; in data set [3] (Day 7, mild/moderate heartburn group), 82%; in data set [3] (Day 7, severe heartburn/GERD group), 38%; in data set [3] (Day 9, mild/moderate heartburn group) it was 82%; in data set [3] (Day 9, severe heartburn/GERD group) it was 38%. Further, the “percentage of participants with severity and frequency symptom ratings of 1-2” value is 91% in data set [3] (Day 11, mild/moderate heartburn group); 72% in data set [3] (Day 11, severe heartburn/GERD group); 91% in data set [3] (Day 15, mild/moderate heartburn group); 88% in data set [3] (Day 15, severe heartburn/GERD group). Also, the “percentage of participants achieving complete relief of symptoms (rating of 1)” value is given as “about 20%” in data set [3] (day 2) and 79% in data set [3] (day 14).
Take `C=C(C)[C@H]1CC=C(C)CC1` [limonene]: the “side effects such as diarrhea and headache” value in data set [4] is reported as “significantly reduced certain side effects”. Besides, in data set [5], the “severity and frequency of heartburn symptoms” value was “alleviated permanently”. For the same molecule, the “effect on gastric acid” value in data set [6] is on record as “neutralizing effect on gastric acid”.
